According to the supplement of paper PMC6580486:
Where a name gives a salt, the structure may show the parent alone.

How the values were obtained:
SkMc = tested on: SkMc
Protocol: (§1)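 60-agent targeted drug screens (Drug Screen V3 on epithelioid sarcoma cultures PCB490-3/4/5, PCB495, EPS cell lines ESX, VA-ES-BJ, FU-EPS-1 and SkMc myoblasts; PPTI screen v2.1 on human UPS PCB197 and canine UPS S1-12). 384-well plates, 72 h, CellTiter-Glo viability; IC50 by Hill curve fit. 10000 nM = no IC50 achieved (top reported value).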

PCB-490-4 = tested on: PCB-490-4 (human epithelioid sarcoma primary culture)
Protocol: as §1

PCB-490-3 = tested on: PCB-490-3 (human epithelioid sarcoma primary culture)
Protocol: as §1

PCB-490-5 = tested on: PCB-490-5 (human epithelioid sarcoma primary culture)
Protocol: as §1

PCB-495 = tested on: PCB-495 (human epithelioid sarcoma primary culture)
Protocol: as §1

FU-EPS-1 = tested on: FU-EPS-1
Protocol: as §1

ESX = tested on: ESX
Protocol: as §1

VA-ES-BJ = tested on: VA-ES-BJ
Protocol: as §1

`Cc1ccc(S(=O)(=O)/C=C/C#N)cc1` [BAY-11-7082] showed an IC50 cell viability (SkMc) greater than 10 µM, an IC50 cell viability (PCB-490-4) of 1.93 µM and an IC50 cell viability (PCB-490-3) greater than 10 µM. It also gave an IC50 cell viability (PCB-490-5) of 0.77 µM, an IC50 cell viability (PCB-495) greater than 10 µM and an IC50 cell viability (FU-EPS-1) greater than 10 µM. It also gave an IC50 cell viability (ESX) greater than 10 µM and an IC50 cell viability (VA-ES-BJ) of 0.49 µM.

`COc1ccc(C[C@@H](C)[C@@H](C)Cc2ccc(OC)c(OC)c2)cc1OC` [EM1421] gave an IC50 cell viability (SkMc) greater than 10 µM, an IC50 cell viability (PCB-490-4) greater than 10 µM and an IC50 cell viability (PCB-490-3) greater than 10 µM. It also gave an IC50 cell viability (PCB-490-5) greater than 10 µM, an IC50 cell viability (PCB-495) greater than 10 µM and an IC50 cell viability (FU-EPS-1) greater than 10 µM. For the same molecule, the IC50 cell viability (ESX) was greater than 10 µM and the IC50 cell viability (VA-ES-BJ) was greater than 10 µM.

With `C[C@@H](Oc1cc(-c2cnn(C3CCNCC3)c2)cnc1N)c1c(Cl)ccc(F)c1Cl` [Crizotinib] the IC50 cell viability (SkMc) was 0.41 µM, the IC50 cell viability (PCB-490-4) was 1.8 µM and the IC50 cell viability (PCB-490-3) was 5.94 µM. For the same molecule, the IC50 cell viability (PCB-490-5) was 4.62 µM, the IC50 cell viability (PCB-495) was 1.31 µM and the IC50 cell viability (FU-EPS-1) was 0.94 µM. The IC50 cell viability (ESX) was 4.37 µM and the IC50 cell viability (VA-ES-BJ) was 0.53 µM.

For `C[C@@H](Oc1ccc2[nH]nc(/C=C/c3cnn(CCO)c3)c2c1)c1c(Cl)cncc1Cl`, the IC50 cell viability (SkMc) was greater than 10 µM, the IC50 cell viability (PCB-490-4) was 0.5 µM and the IC50 cell viability (PCB-490-3) was 1.73 µM. It also gave an IC50 cell viability (PCB-490-5) of 0.46 µM, an IC50 cell viability (PCB-495) of 0.19 µM and an IC50 cell viability (FU-EPS-1) greater than 10 µM. It also gave an IC50 cell viability (ESX) of 4.52 µM and an IC50 cell viability (VA-ES-BJ) greater than 10 µM.

`Cc1nnc(C(C)C)n1C1C[C@H]2CC[C@@H](C1)N2CC[C@H](NC(=O)C1CCC(F)(F)CC1)c1ccccc1` (stereo in doubt) [Maraviroc] gave an IC50 cell viability (SkMc) greater than 10 µM, an IC50 cell viability (PCB-490-4) greater than 10 µM and an IC50 cell viability (PCB-490-3) greater than 10 µM. It also gave an IC50 cell viability (PCB-490-5) greater than 10 µM, an IC50 cell viability (PCB-495) greater than 10 µM and an IC50 cell viability (FU-EPS-1) greater than 10 µM. For the same molecule, the IC50 cell viability (ESX) was greater than 10 µM and the IC50 cell viability (VA-ES-BJ) was greater than 10 µM.

`COc1cccc(OCCCN)c1-c1cc(Nc2cnc(C#N)cn2)n[nH]1` showed an IC50 cell viability (SkMc) of 1.29 µM, an IC50 cell viability (PCB-490-4) greater than 10 µM and an IC50 cell viability (PCB-490-3) greater than 10 µM. For the same molecule, the IC50 cell viability (PCB-490-5) was greater than 10 µM, the IC50 cell viability (PCB-495) was 3.17 µM and the IC50 cell viability (FU-EPS-1) was greater than 10 µM. It also gave an IC50 cell viability (ESX) of 0.23 µM and an IC50 cell viability (VA-ES-BJ) of 0.69 µM.

`CC(C)n1nc(-c2ccc3oc(N)nc3c2)c2c(N)ncnc21` [INK 128] showed an IC50 cell viability (SkMc) of 0.02 µM, an IC50 cell viability (PCB-490-4) of 0.06 µM and an IC50 cell viability (PCB-490-3) of 0.26 µM. For the same molecule, the IC50 cell viability (PCB-490-5) was 0.1 µM, the IC50 cell viability (PCB-495) was 0.14 µM and the IC50 cell viability (FU-EPS-1) was greater than 10 µM. For the same molecule, the IC50 cell viability (ESX) was 0.01 µM and the IC50 cell viability (VA-ES-BJ) was 0.03 µM.

In the case of `CO[C@@H]1[C@H](N(C)C(=O)c2ccccc2)C[C@H]2O[C@]1(C)n1c3ccccc3c3c4c(c5c6ccccc6n2c5c31)C(=O)NC4` [PKC412], the IC50 cell viability (SkMc) is reported as greater than 10 µM, the IC50 cell viability (PCB-490-4) is reported as 1.25 µM and the IC50 cell viability (PCB-490-3) is reported as greater than 10 µM. The IC50 cell viability (PCB-490-5) was 1.73 µM, the IC50 cell viability (PCB-495) was 1.36 µM and the IC50 cell viability (FU-EPS-1) was greater than 10 µM. For the same molecule, the IC50 cell viability (ESX) was 6.4 µM and the IC50 cell viability (VA-ES-BJ) was 1.8 µM.

`COCC[n+]1c2c(n(Cc3cnccn3)c1C)C(=O)c1ccccc1C2=O` [YM155] showed an IC50 cell viability (SkMc) of 0.28 µM, an IC50 cell viability (PCB-490-4) of 0.27 µM and an IC50 cell viability (PCB-490-3) of 0.15 µM. The IC50 cell viability (PCB-490-5) was 0.16 µM, the IC50 cell viability (PCB-495) was 0.07 µM and the IC50 cell viability (FU-EPS-1) was 0.01 µM. The IC50 cell viability (ESX) was 0.02 µM and the IC50 cell viability (VA-ES-BJ) was 0.01 µM.

`CO[C@H]1C[C@@H]2CC[C@@H](C)[C@@](O)(O2)C(=O)C(=O)N2CCCC[C@H]2C(=O)O[C@H]([C@H](C)C[C@@H]2CC[C@@H](O)[C@H](OC)C2)CC(=O)[C@H](C)/C=C(\C)[C@@H](O)[C@@H](OC)C(=O)[C@H](C)C[C@H](C)/C=C/C=C/C=C/1C` [Sirolimus] was tested, and the IC50 cell viability (SkMc) was 0.29 µM, the IC50 cell viability (PCB-490-4) was greater than 10 µM and the IC50 cell viability (PCB-490-3) was greater than 10 µM. For the same molecule, the IC50 cell viability (PCB-490-5) was greater than 10 µM, the IC50 cell viability (PCB-495) was greater than 10 µM and the IC50 cell viability (FU-EPS-1) was greater than 10 µM. It also gave an IC50 cell viability (ESX) greater than 10 µM and an IC50 cell viability (VA-ES-BJ) greater than 10 µM.

`CN(C)C(=N)NC(=N)N` [Metformin HCL] gave an IC50 cell viability (SkMc) greater than 10 µM, an IC50 cell viability (PCB-490-4) greater than 10 µM and an IC50 cell viability (PCB-490-3) greater than 10 µM. It also gave an IC50 cell viability (PCB-490-5) greater than 10 µM, an IC50 cell viability (PCB-495) greater than 10 µM and an IC50 cell viability (FU-EPS-1) greater than 10 µM. The IC50 cell viability (ESX) was greater than 10 µM and the IC50 cell viability (VA-ES-BJ) was greater than 10 µM.

`Cc1ccc(Nc2nccc(N(C)c3ccc4c(C)n(C)nc4c3)n2)cc1S(N)(=O)=O` [Pazopanib] showed an IC50 cell viability (SkMc) greater than 10 µM, an IC50 cell viability (PCB-490-4) greater than 10 µM and an IC50 cell viability (PCB-490-3) greater than 10 µM. The IC50 cell viability (PCB-490-5) was greater than 10 µM, the IC50 cell viability (PCB-495) was greater than 10 µM and the IC50 cell viability (FU-EPS-1) was greater than 10 µM. For the same molecule, the IC50 cell viability (ESX) was greater than 10 µM and the IC50 cell viability (VA-ES-BJ) was greater than 10 µM.

`CC(C)n1c(/C=C/C(O)CC(O)CC(=O)O)c(-c2ccc(F)cc2)c2ccccc21` (configuration not stated) [Fluvastatin] gave an IC50 cell viability (SkMc) of 8.73 µM, an IC50 cell viability (PCB-490-4) of 4.28 µM and an IC50 cell viability (PCB-490-3) of 1.32 µM. It also gave an IC50 cell viability (PCB-490-5) of 1.32 µM, an IC50 cell viability (PCB-495) of 0.08 µM and an IC50 cell viability (FU-EPS-1) of 1.48 µM. For the same molecule, the IC50 cell viability (ESX) was 2.5 µM and the IC50 cell viability (VA-ES-BJ) was 0.1 µM.

Work on `CN1CCC(CNc2ccc3ncc(-c4cccc(OC(F)(F)F)c4)n3n2)CC1` [SGI-1776] yielded an IC50 cell viability (SkMc) of 2.84 µM, an IC50 cell viability (PCB-490-4) of 2.03 µM and an IC50 cell viability (PCB-490-3) of 4.5 µM. It also gave an IC50 cell viability (PCB-490-5) of 1.85 µM, an IC50 cell viability (PCB-495) of 7.51 µM and an IC50 cell viability (FU-EPS-1) of 1.7 µM. It also gave an IC50 cell viability (ESX) of 0.15 µM and an IC50 cell viability (VA-ES-BJ) of 4.81 µM.

Molecule `N#CC[C@H](C1CCCC1)n1cc(-c2ncnc3[nH]ccc23)cn1` [Ruxolitinib] has an IC50 cell viability (SkMc) greater than 10 µM, an IC50 cell viability (PCB-490-4) greater than 10 µM and an IC50 cell viability (PCB-490-3) greater than 10 µM. The IC50 cell viability (PCB-490-5) was greater than 10 µM, the IC50 cell viability (PCB-495) was greater than 10 µM and the IC50 cell viability (FU-EPS-1) was greater than 10 µM. The IC50 cell viability (ESX) was greater than 10 µM and the IC50 cell viability (VA-ES-BJ) was greater than 10 µM.

`CS(=O)(=O)c1cccc(CNc2nc(Nc3ccc4c(c3)CCC(=O)N4)ncc2C(F)(F)F)c1` was tested, and the IC50 cell viability (SkMc) was greater than 10 µM, the IC50 cell viability (PCB-490-4) was greater than 10 µM and the IC50 cell viability (PCB-490-3) was greater than 10 µM. It also gave an IC50 cell viability (PCB-490-5) greater than 10 µM, an IC50 cell viability (PCB-495) greater than 10 µM and an IC50 cell viability (FU-EPS-1) greater than 10 µM. The IC50 cell viability (ESX) was greater than 10 µM and the IC50 cell viability (VA-ES-BJ) was greater than 10 µM.

In the case of `O=C(O)CC[C@H](O)C(=O)O` [L-a-Hydroxyglutaric acid], the IC50 cell viability (SkMc) is reported as greater than 10 µM, the IC50 cell viability (PCB-490-4) is reported as greater than 10 µM and the IC50 cell viability (PCB-490-3) is reported as greater than 10 µM. For the same molecule, the IC50 cell viability (PCB-490-5) was greater than 10 µM, the IC50 cell viability (PCB-495) was greater than 10 µM and the IC50 cell viability (FU-EPS-1) was greater than 10 µM. It also gave an IC50 cell viability (ESX) greater than 10 µM and an IC50 cell viability (VA-ES-BJ) greater than 10 µM.

`CC(=O)c1c(C)c2cnc(Nc3ccc(N4CCNCC4)cn3)nc2n(C2CCCC2)c1=O` was tested, and the IC50 cell viability (SkMc) was greater than 10 µM, the IC50 cell viability (PCB-490-4) was greater than 10 µM and the IC50 cell viability (PCB-490-3) was greater than 10 µM. For the same molecule, the IC50 cell viability (PCB-490-5) was greater than 10 µM, the IC50 cell viability (PCB-495) was greater than 10 µM and the IC50 cell viability (FU-EPS-1) was greater than 10 µM. It also gave an IC50 cell viability (ESX) greater than 10 µM and an IC50 cell viability (VA-ES-BJ) greater than 10 µM.

For `Cc1ccc(-c2cc(C(F)(F)F)nn2-c2ccc(S(N)(=O)=O)cc2)cc1` [Celecoxib], the IC50 cell viability (SkMc) was greater than 10 µM, the IC50 cell viability (PCB-490-4) was greater than 10 µM and the IC50 cell viability (PCB-490-3) was greater than 10 µM. For the same molecule, the IC50 cell viability (PCB-490-5) was greater than 10 µM, the IC50 cell viability (PCB-495) was greater than 10 µM and the IC50 cell viability (FU-EPS-1) was greater than 10 µM. It also gave an IC50 cell viability (ESX) greater than 10 µM and an IC50 cell viability (VA-ES-BJ) greater than 10 µM.
